The values that follow come from patent publication US20120142705A1, “ISATIN AND OXINDOLE COMPOUNDS” (priority 2010, published 2012).

Broadly, the fold induction is the signal under treatment as a multiple of the control signal.

The target of one experiment is T1, Recombinant human liver GK1 (GST-GK) (Homo sapiens, UniProt P35557).
T1 construct: made in house; host or cells: E. coli
T1 sequence (P35557 1-466 isoform P35557-2): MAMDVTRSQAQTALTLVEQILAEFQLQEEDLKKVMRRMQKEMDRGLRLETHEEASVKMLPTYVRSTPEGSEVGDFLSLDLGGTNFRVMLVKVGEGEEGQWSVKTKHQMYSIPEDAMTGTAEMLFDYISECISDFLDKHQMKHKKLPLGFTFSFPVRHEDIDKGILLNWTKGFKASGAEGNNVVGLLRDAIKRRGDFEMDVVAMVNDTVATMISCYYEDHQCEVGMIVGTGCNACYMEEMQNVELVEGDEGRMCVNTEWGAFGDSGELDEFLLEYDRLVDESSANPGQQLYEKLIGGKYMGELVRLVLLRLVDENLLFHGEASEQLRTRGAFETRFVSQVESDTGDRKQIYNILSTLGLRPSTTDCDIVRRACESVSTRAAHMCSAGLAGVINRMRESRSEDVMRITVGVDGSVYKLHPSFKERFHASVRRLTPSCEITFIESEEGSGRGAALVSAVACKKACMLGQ
Briefly: In vitro glucokinase activity, G6PDH-coupled spectrophotometric assay. In kind it is biochemical. The following applies: 5 mM D-glucose, 30° C., pH 7.1. The essentials:
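GST-fused human liver GK1 from E. coli, run at 30° C. in pH 7.1 HEPES with 5 mM glucose, 1 mM ATP and 10% DMSO, coupled via G6PDH to NADH. OD340 rate measured after enzyme start; SC1.5 is the activator concentration raising activity 50% over DMSO control.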
Take `Cc1ccc2c(c1)C(=O)C(=O)N2C(CC1CCCC1)C(=O)Nc1ccn(C)n1` (centres unmarked) [Example 78, 3-Cyclopentyl-2-(5-methyl-2,3-dioxo-2,3-dihydro-indol-1-yl)-N-(1-methyl-1H-pyrazol-3-yl)-propionamide]: the “SC1.5 (concentration of activator that produced a 50% increase in the activity of GK)” value is 29.38 µM. As to `Cc1ccc2c(c1)C(=O)C(=O)N2C(CC1CCCC1)C(=O)Nc1nccs1` (centres unmarked) [Example 79, 3-Cyclopentyl-2-(5-methyl-2,3-dioxo-2,3-dihydro-indol-1-yl)-N-thiazol-2-yl-propionamide], the “SC1.5 (concentration of activator that produced a 50% increase in the activity of GK)” value amounted to 16.22 µM.

For the compound `Cc1ccc2c(c1)CC(=O)N2C(CC1CCCC1)C(=O)Nc1ccccn1` (centres unmarked) [Example 80, 3-Cyclopentyl-2-(5-methyl-2-oxo-2,3-dihydro-indol-1-yl)-N-pyridin-2-yl-propionamide], the “SC1.5 (concentration of activator that produced a 50% increase in the activity of GK)” value came out at 3.83 µM. As for `Cc1ccc2c(c1)CC(=O)N2C(CC1CCCC1)C(=O)Nc1ccn(C)n1` (centres unmarked) [Example 81, 3-Cyclopentyl-2-(5-methyl-2-oxo-2,3-dihydro-indol-1-yl)-N-(1-methyl-1H-pyrazol-3-yl)-propionamide], the “SC1.5 (concentration of activator that produced a 50% increase in the activity of GK)” value turned out to be 11.29 µM.

As for `Cc1ccc2c(c1)CC(=O)N2C(CC1CCCC1)C(=O)Nc1nccs1` (centres unmarked) [Example 82, 3-Cyclopentyl-2-(5-methyl-2-oxo-2,3-dihydro-indol-1-yl)-N-thiazol-2-yl-propionamide], the “SC1.5 (concentration of activator that produced a 50% increase in the activity of GK)” value was 2.45 µM.

As to `Cc1ccc2c(c1)CC(=O)N2C(CC1CCCC1)C(=O)Nc1cnccn1` (centres unmarked) [Example 83, 3-Cyclopentyl-2-(5-methyl-2-oxo-2,3-dihydro-indol-1-yl)-N-pyrazin-2-yl-propionamide], the “SC1.5 (concentration of activator that produced a 50% increase in the activity of GK)” value was found to be 4.47 µM. Consider `Cc1ccc2c(c1)CC(=O)N2C(CC(C)C)C(=O)Nc1nccs1` (centres unmarked) [Example 88, 4-Methyl-2-(5-methyl-2-oxo-2,3-dihydro-indol-1-yl)-pentanoic acid thiazol-2-ylamide], for which the “SC1.5 (concentration of activator that produced a 50% increase in the activity of GK)” value amounted to 22.88 µM. Same read-out and setting: for `Cc1ccc2c(c1)CC(=O)N2C(CC(C)C)C(=O)Nc1ccccn1` (centres unmarked) [Example 90, 4-Methyl-2-(5-methyl-2-oxo-2,3-dihydro-indol-1-yl)-pentanoic acid pyridin-2-ylamide] the value was 12.84 µM; for `Cc1ccc2c(c1)CC(=O)N2C(CC(C)C)C(=O)Nc1cnccn1` (centres unmarked) [Example 91, 4-Methyl-2-(5-methyl-2-oxo-2,3-dihydro-indol-1-yl)-pentanoic acid pyrazin-2-ylamide], 28.45 µM.

Staying with this experiment, now noted: @ 30 uM; 5 mM D-glucose, 30° C.
For `Cc1ccc2c(c1)C(=O)C(=O)N2C(CC(C)C)C(=O)Nc1cnccn1` (centres unmarked) [Example 84, 4-Methyl-2-(5-methyl-2,3-dioxo-2,3-dihydro-indol-1-yl)-pentanoic acid pyrazin-2-ylamide], the fold induction at 30 µM stood at 1.29. Turning to `Cc1ccc2c(c1)C(=O)C(=O)N2C(CC(C)C)C(=O)Nc1ccccn1` (centres unmarked) [Example 85, 4-Methyl-2-(5-methyl-2,3-dioxo-2,3-dihydro-indol-1-yl)-pentanoic acid pyridin-2-ylamide], the fold induction at 30 µM was found to be 1.16. As for `Cc1ccc2c(c1)C(=O)C(=O)N2C(CC(C)C)C(=O)Nc1ccn(C)n1` (centres unmarked) [Example 86, 4-Methyl-2-(5-methyl-2,3-dioxo-2,3-dihydro-indol-1-yl)-pentanoic acid (1-methyl-1H-pyrazol-3-yl)-amide], the fold induction at 30 µM worked out at 1.44. Turning to `Cc1ccc2c(c1)C(=O)C(=O)N2C(CC(C)C)C(=O)Nc1nccs1` (centres unmarked) [Example 87, 4-Methyl-2-(5-methyl-2,3-dioxo-2,3-dihydro-indol-1-yl)-pentanoic acid thiazol-2-ylamide], the fold induction at 30 µM was found to be 1.16. Turning to `Cc1ccc2c(c1)CC(=O)N2C(CC(C)C)C(=O)Nc1ccn(C)n1` (centres unmarked) [Example 89, 4-Methyl-2-(5-methyl-2-oxo-2,3-dihydro-indol-1-yl)-pentanoic acid (1-methyl-1H-pyrazol-3-yl)-amide], the fold induction at 30 µM was determined as 1.23.
